Experimental data: patent US20170119851A1, “METHODS OF TREATING ANOREXIA” (NOVARTIS AG, priority 2014, published 2017)
No end group written: not given here.

How the values were obtained:
MC3R [1] = molecular target: T1, MC3R (Homo sapiens, UniProt P41968); assay: MC3 cAMP assay, HEK293/MC3R stable cell line (antagonist protocol); format: cell-based; conditions: HEK293/MC3R cells, antagonist protocol against NDP-α-MSH EC80
T1 construct: expressed in transfected cells; host or cells: HEK293
Description: Cells: HEK293/MC3R stable cell line Complete medium: DMEM/F12 1:1 (Gibco, Cat. No. 11039) • 10% FBS (Heat inactivated, Gibco, Cat. No. 10082)× • 200 μg/mL Geneticin (Gibco, Cat. No. 10131) • 2 mM L-glutamine (GIBCO, Cat No. 25030) Flask: 150 cm^2 tissue culture treated flask (Corning, Cat. No. 430825).
• I. Aspirate conditioned medium • II. Wash with 2.5 mL of DPBS (Gibco, Cat. No. 14190) • III. Add 2 mL of 0.25% Trypsin-EDTA (Gibco, Cat. No. 25200-056) • IV. Leave the flask for few minutes in incubator, tap the flask a few time to detach cells. • V. Add 10 mL of the complete medium to stop Trypsin-EDTA treatment and mix it well by pipetting softly a few times to re-suspend clumping cells • VI. Transfer 1.5 ml of cells into a new 150 cm flask containing 20 ml of complete media • VII. Transfer the remaining suspension into a 50 mL centrifuge tube • VIII. Spin down at 1200 rpm for 4 mins. Aspirate supernatant • IX. Add 6 mL of the assay buffer to the tube and re-suspend the cells by softly pipetting • X. Transfer 0.5 mL of the suspension into a sample vial for Vi-cell and add another 0.5 ml of PBS. • XI. Count cell number by using a Vi-cell *Record cell density and viability every time • i. Plate cells at 4K/well in 10 ul/well of assay buffer containing IBMX. • ii. Leave the plate in incubator for ˜30 mins before assay is started on suspension cells. […]

in vivo [2] = conditions: male, Sprague-Dawley, rat, plasma, iv, 10 nanomoles per rat
Description: C) In Vivo Assay Description:
10 nanomoles of conjugate was dissolved in 300 L of PBS (Phosphate buffered saline) to form Dosing solution. Dosing solution (300 M) was administered intravenously to male Sprague-Dawley rats via lateral tail vein (corresponding to a dose 10 nanomoles per rat). Blood was collected via tail snip at prescribed times after dosing and immediately placed on wet ice. These samples were centrifuged at 4 C, with supernatant plasma transferred to a fresh tube for analysis.
For assay, intermediates were diluted to a top standard concentration of 2500 pg/mL and then diluted 2-fold serially to 16 points including a zero dose standard in ELISA sample diluent with bovine serum albumin (BSA).
Plasma samples were diluted 10-fold and then 5-fold serially out to 31,250-fold in ELISA sample diluent with BSA.
Plates were aspirated and blocked with a milk-based blocker at 90 uL/well for 2 hours at RT. All further incubations were carried out at 30 uL/well. Plates were aspirated again and samples and standards were added to the wells for 2 hours at RT. […] The plates were washed again and a HRP-labeled streptavidin reagent was added to the wells for 30 minutes at RT. Plates were washed a final time and a chemiluminescent substrate was added to all wells and plates were read immediately on a Spectramx M5 for light output.
Raw data was organized and analyzed for basic PK parameters.

MC4R [3] = molecular target: T2, MC4R (Homo sapiens, UniProt P32245); assay: HTRF cAMP assay, HEK293/MC4R stable cell line; format: cell-based; conditions: HEK293/MC4R cells, titration against NDP-aMSH
T2 construct: expressed in transfected cells; host or cells: HEK293
Description: A) HTRF cAMP Assay Protocol:
• Flash spindown the 384 well plate at 1200 RPM • Incubated the cells for 15 minutes at an ambient temperature • Add 10 μL of the following reagents into each well based on your sample alignment
• Flash spindown the 384 well plate at 1200 RPM • Incubate the cells for an additional 30 minutes at an ambient temperature • *This incubation time is not so strict. +/−5 min should be OK according to assay development data. • Add 10 μL of cAMP-d2 (diluted 1:4 in the lysis buffer provided in the kit) • *Important!! For Negative control, not cAMP-d2, but just the lysis buffer • Add 10 μL of anti-cAMP Cryptate (diluted 1:4 in the lysis buffer provided in the kit) • Flash spindown at 1200 RPM. • Incubate the assay plate for 45-60 min at an ambient temperature. • Transfer […] of each sample to a tissue culture treated white polystyrene 384-well assay plate (Corning, Cat. No. 3572) • Flash spindown at 1200 RPM. • Measure the fluorescence with a Molecular device M5 or M5e with the following setting.

MC3R and MC4R = conditions: Jackson et al., Biochemistry 41, 7565-7572; cited from earlier work
MC3R [4] = molecular target: T1, MC3R; conditions: Jackson et al., Biochemistry 41, 7565-7572; cited from earlier work
MC4R [5] = molecular target: T2, MC4R; conditions: Jackson et al., Biochemistry 41, 7565-7572; cited from earlier work
C57BL mice [6] = assay: Food intake after subcutaneous (SC) AgRP in mice; format: in vivo; conditions: 57 μg AgRP
Description: One day prior to treatment, 4-h food intake was measured and animals grouped to match group means of food intake. On the day of the study, animals were dosed via SC injection between 10:30 to 11:00 am. Pre-weighed food was provided to the mice prior to the dark cycle (11:00 am). At 4 and 24 h post dose food intake was measured.
All data were analyzed using an unpaired t-test comparing PBS and AgRP in saline. A p value of <0.05 or lower was taken to be statistically significant. All data were analyzed and plotted using GraphPad Prism6 software (San Diego, Calif.).

[7] = test system: lean Sprague Dawley (SD) rats; assay: Food intake after intranasal AgRP in lean rats; format: in vivo
Description: The purpose of the following study was to determine if intranasal—(IN) administered AgRP would stimulate food intake in lean Sprague Dawley (SD) rats.
8-12 week-old male SD rats were housed one per cage with a standard chow diet and normal light cycle.
One and two days prior to dosing, 24 h food intake and body weight were measured. Animals were grouped based on body weight and food intake. […] Animals were actively sniffing when compound was administered. After dosing, rats were returned to their home cages. A pre-weighed amount of food was given to the animals after dosing. Food weight was recorded at 4 and 24 hours post dose.
All data were analyzed using an unpaired t-test comparing saline and AgRP. A p value of <0.05 or lower was taken to be statistically significant. All data were analyzed and plotted using GraphPad Prism6 software (San Diego, Calif.).

C57BL mice [8] = assay: Food intake after intranasal (IN) AgRP in mice; format: in vivo; conditions: 57 μg AgRP in saline
Description: One day prior to treatment, 4-h food intake was measured and animals grouped to match group means of food intake. On the day of the study, food was removed at 9:00 am. […] After dosing, the mice remained in the isoflurane chamber in a supine position for 3 min before being returned to their cages. A pre-weighed amount of food was given to the animals before the dark cycle. Food weight was recorded at 4 and 24 hours post dose.
All data were analyzed using an unpaired t-test comparing saline and AgRP in saline. A p value of <0.05 or lower was taken to be statistically significant. All data were analyzed and plotted using GraphPad Prism6 software (San Diego, Calif.).

in vivo [9] = conditions: male, C57BL, mouse, plasma, 57 ug
Description: Male C57BL mice were housed one per cage with normal chow diet and housed in normal light cycle (light on 6:00-18:00).
10 min prior to the treatment, tail blood samples were taken and plasma (10 μl) was obtained. […] After being dosed, the mice remained in the isoflurane chamber for 2 min before placed back in their home cages. […] Tail blood samples were taken at 2, 5, 10, 30 min and 1, 2, 4 and 24 h post dose. Plasma samples were aliquoted and stored at −80° C. until analysis.

T2 sequence (P32245 whole entry, species assumed): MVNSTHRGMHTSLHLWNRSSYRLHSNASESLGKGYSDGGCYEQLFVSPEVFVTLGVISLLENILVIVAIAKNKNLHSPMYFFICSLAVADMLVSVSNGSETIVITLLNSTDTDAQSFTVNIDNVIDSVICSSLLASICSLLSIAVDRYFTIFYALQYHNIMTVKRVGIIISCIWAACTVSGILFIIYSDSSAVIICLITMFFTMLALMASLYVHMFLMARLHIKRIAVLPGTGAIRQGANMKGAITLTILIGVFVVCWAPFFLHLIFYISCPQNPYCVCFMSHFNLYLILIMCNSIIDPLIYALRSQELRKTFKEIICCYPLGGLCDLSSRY
T1 sequence (P41968 whole entry, species assumed): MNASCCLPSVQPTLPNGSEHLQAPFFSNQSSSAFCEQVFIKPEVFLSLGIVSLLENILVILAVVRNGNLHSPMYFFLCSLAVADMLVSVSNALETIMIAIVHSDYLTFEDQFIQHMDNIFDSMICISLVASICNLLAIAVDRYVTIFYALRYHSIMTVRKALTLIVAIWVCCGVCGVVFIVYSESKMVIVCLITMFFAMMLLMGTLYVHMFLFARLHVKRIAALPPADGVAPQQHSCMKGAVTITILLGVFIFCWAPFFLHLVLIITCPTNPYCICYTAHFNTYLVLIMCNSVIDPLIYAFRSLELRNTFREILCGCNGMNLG

Compound | EC50 (MC3R [1]) | half-life (in vivo [2]) | EC50 (MC4R [3]) | inverse agonism compared with AgRP(83-132) (MC3R and MC4R) | MC3R affinity compared with AgRP(83-132) (MC3R [4]) | MC4R affinity compared with AgRP(83-132) (MC4R [5]) | further results
CCCCCCCCCCCC(CCCCCCCCCCC(=O)O)(C(=O)O)C(=O)NCCOCCOCCOCCOCCOCCOCCOCCOCCOCCOCCOCCOCCOCCOCCOCCOCCOCCOCCOCCOCCOCCOCCOCCOCCC(=O)NCCCC[C@@H]1NC(=O)[C@H](CCCNC(=N)N)NC(=O)[C@@H]2CSSC[C@@H]3NC(=O)[C@@H]4CCCN4C(=O)[C@H](C(C)C)NC(=O)[C@H](CCC(N)=O)NC(=O)[C@H](CCC(N)=O)NC(=O)CNC(=O)[C@H](CC(C)C)NC(=O)[C@@H]4CSSC[C@H](NC(=O)[C@H]([C@@H](C)O)NC(=O)[C@H](C)NC(=O)[C@H](CSSC[C@@H](C(=O)N[C@@H](CO)C(=O)N[C@@H](CCCNC(=N)N)C(=O)N[C@H](C(=O)O)[C@@H](C)O)NC(=O)[C@@H]5CCCN5C(=O)[C@H](CC(N)=O)NC(=O)[C@H](CCSC)NC(=O)[C@H](C)NC(=O)[C@H]([C@@H](C)O)NC(=O)CNC(=O)[C@H](CC(C)C)NC1=O)NC(=O)[C@@H]1CCCN1C(=O)[C@H](CC(=O)O)NC(=O)[C@H](CSSC[C@H](NC(=O)[C@H](CCCNC(=N)N)NC(=O)[C@H](CCCNC(=N)N)NC(=O)[C@H](CO)NC(=O)[C@H](CO)NC(=O)CCOCCOCCOCCOCCOCCOCCOCCOCCOCCOCCOCCOCCOCCOCCOCCOCCOCCOCCOCCOCCOCCOCCOCCOCCNC(=O)C(CCCCCCCCCCC)(CCCCCCCCCCC(=O)O)C(=O)O)C(=O)N[C@@H](C(C)C)C(=O)N[C@@H](CCCNC(=N)N)C(=O)N[C@@H](CC(C)C)C(=O)N[C@@H](Cc1c[nH]cn1)C(=O)N[C@@H](CCC(=O)O)C(=O)N[C@@H](CO)C(=O)N4)NC3=O)C(=O)N[C@@H](Cc1ccc(O)cc1)C(=O)N[C@H]1CSSC[C@H](NC(=O)[C@H](Cc3ccccc3)NC(=O)[C@H](C)NC(=O)[C@H](CC(N)=O)NC(=O)[C@H](Cc3ccccc3)NC(=O)[C@H](Cc3ccccc3)NC(=O)[C@H](CCCNC(=N)N)NC1=O)C(=O)N[C@@H](Cc1ccc(O)cc1)C(=O)N2 (some centres unmarked) [Example 5B] | 65 nM | 52 h | 167 nM | – | – | – | –
CCCCCCCCCCCC(CCCCCCCCCCC(=O)O)(C(=O)O)C(=O)NCCOCCOCCOCCOCCOCCOCCOCCOCCOCCOCCOCCOCCOCCOCCOCCOCCOCCOCCOCCOCCOCCOCCOCCOCCC(=O)N[C@@H](CO)C(=O)N[C@@H](CO)C(=O)N[C@@H](CCCNC(=N)N)C(=O)N[C@@H](CCCNC(=N)N)C(=O)N[C@H]1CSSC[C@@H]2NC(=O)[C@@H]3CSSC[C@@H]4NC(=O)[C@H](Cc5ccc(O)cc5)NC(=O)[C@@H]5CSSC[C@H](NC(=O)[C@H](Cc6ccc(O)cc6)NC(=O)[C@H](CSSC[C@H](NC(=O)[C@H](CO)NC(=O)[C@H](CCC(=O)O)NC(=O)[C@H](Cc6c[nH]cn6)NC(=O)[C@H](CC(C)C)NC(=O)[C@H](CCCNC(=N)N)NC(=O)[C@H](C(C)C)NC1=O)C(=O)N[C@@H](CC(C)C)C(=O)NCC(=O)N[C@@H](CCC(N)=O)C(=O)N[C@@H](CCC(N)=O)C(=O)N[C@@H](C(C)C)C(=O)N1CCC[C@H]1C(=O)N3)NC(=O)[C@H]([C@@H](C)O)NC(=O)[C@H](C)NC(=O)[C@H](CSSC[C@@H](C(=O)N[C@@H](CO)C(=O)N[C@@H](CCCNC(=N)N)C(=O)N[C@H](C(=O)O)[C@@H](C)O)NC(=O)[C@@H]1CCCN1C(=O)[C@H](CC(N)=O)NC(=O)[C@H](CCSC)NC(=O)[C@H](C)NC(=O)[C@H]([C@@H](C)O)NC(=O)CNC(=O)[C@H](CC(C)C)NC(=O)[C@H](CCCCN)NC(=O)[C@H](CCCNC(=N)N)NC4=O)NC(=O)[C@@H]1CCCN1C(=O)[C@H](CC(=O)O)NC2=O)C(=O)N[C@@H](CCCNC(=N)N)C(=O)N[C@@H](Cc1ccccc1)C(=O)N[C@@H](Cc1ccccc1)C(=O)N[C@@H](CC(N)=O)C(=O)N[C@@H](C)C(=O)N[C@@H](Cc1ccccc1)C(=O)N5 (some centres unmarked) [Example 5A] | 7 nM | 20 h | 18 nM | – | – | – | –
AgRP(87-132): shorter biologically active fragment of AgRP described in Jackson et al. | – | – | – | equivalent inverse agonism | approximately the same | approximately the same | –
AgRP (87-120): shorter biologically active fragment of AgRP described in Jackson et al. (CVRLHESCLGQQVPCCDPCATCYCRFFNAFCYCR; also: disulfide pairing of this fragment not given here, 9 Cys (C105 partner C129 absent)) | – | – | – | equivalent inverse agonism | approximately the same | approximately the same | –
CSCC[C@@H]1NC(=O)[C@H](C)NC(=O)[C@H]([C@@H](C)O)NC(=O)CNC(=O)[C@H](CC(C)C)NC(=O)[C@H](CCCCN)NC(=O)[C@H](CCCNC(=N)N)NC(=O)[C@@H]2CSSC[C@@H]3NC(=O)[C@@H]4CCCN4C(=O)[C@H](C(C)C)NC(=O)[C@H](CCC(N)=O)NC(=O)[C@H](CCC(N)=O)NC(=O)CNC(=O)[C@H](CC(C)C)NC(=O)[C@@H]4CSSC[C@H](NC(=O)[C@H]([C@@H](C)O)NC(=O)[C@H](C)NC(=O)[C@H](CSSC[C@@H](C(=O)N[C@@H](CO)C(=O)N[C@@H](CCCNC(=N)N)C(=O)N[C@H](C(=O)O)[C@@H](C)O)NC(=O)[C@@H]5CCCN5C(=O)[C@H](CC(N)=O)NC1=O)NC(=O)[C@@H]1CCCN1C(=O)[C@H](CC(=O)O)NC(=O)[C@H](CSSC[C@H](NC(=O)[C@H](CCCNC(=N)N)NC(=O)[C@H](CCCNC(=N)N)NC(=O)[C@H](CO)NC(=O)[C@@H](N)CO)C(=O)N[C@@H](C(C)C)C(=O)N[C@@H](CCCNC(=N)N)C(=O)N[C@@H](CC(C)C)C(=O)N[C@@H](Cc1c[nH]cn1)C(=O)N[C@@H](CCC(=O)O)C(=O)N[C@@H](CO)C(=O)N4)NC3=O)C(=O)N[C@@H](Cc1ccc(O)cc1)C(=O)N[C@H]1CSSC[C@H](NC(=O)[C@H](Cc3ccccc3)NC(=O)[C@H](C)NC(=O)[C@H](CC(N)=O)NC(=O)[C@H](Cc3ccccc3)NC(=O)[C@H](Cc3ccccc3)NC(=O)[C@H](CCCNC(=N)N)NC1=O)C(=O)N[C@@H](Cc1ccc(O)cc1)C(=O)N2 [AgRP, Agouti-Related Peptide] | – | – | – | – | – | – | food intake vs PBS (unpaired t-test) (C57BL mice [6]; 4 h post dose): did not resulted in a significant effect; food intake vs PBS (unpaired t-test) (C57BL mice [6]; 24 h post dose): did not resulted in a significant effect; food intake vs saline (unpaired t-test) ([7]; 57 μg AgRP, 24 h post dose): significant increase; food intake vs saline (unpaired t-test) ([7]; 171 μg AgRP, 4 h post dose): significant effect; food intake vs saline (unpaired t-test) ([7]; 171 μg AgRP, 24 h post dose): significant increase; food intake vs saline (unpaired t-test) (C57BL mice [8]; 4 h post dose): significant effect; food intake vs saline (unpaired t-test) (C57BL mice [8]; 24 h post dose): significant effect; Cmax (in vivo [9]; other: intranasal (IN)): 97.6 ng/mL; Tmax (in vivo [9]; other: intranasal (IN)): 1 h; Cmax (in vivo [9]; sc): 2810 ng/mL; Tmax (in vivo [9]; sc): 0.5 h
